Like-named read-outs stand apart in the source and are kept apart here.
Legend:
[1] = system: 5-LO; conditions: cited from earlier work
[2] = target: T1, microsomal prostaglandin E2 synthase-1 (mPGES-1) (Homo sapiens, UniProt O14684); assay: biochemical; conditions: cell-free, A549 microsomes; n=3; >10 = significant inhibition at 10 µM, >>10 = no significant inhibition at 10 µM
T1 sequence (O14684 1-152): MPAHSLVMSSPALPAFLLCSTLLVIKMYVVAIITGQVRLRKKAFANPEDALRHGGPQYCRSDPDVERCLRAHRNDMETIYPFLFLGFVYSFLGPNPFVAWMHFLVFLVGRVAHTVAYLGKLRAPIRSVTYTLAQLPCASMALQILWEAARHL

[3] = target: T2, 5-LO in PMNL (Homo sapiens, UniProt P09917); assay: cell-based; conditions: intact human PMNL, A23187 2.5 µM + 20 µM AA, n=3, >10 = significant inhibition at 10 µM, >>10 = no significant inhibition at 10 µM
T2 sequence (P09917 1-674): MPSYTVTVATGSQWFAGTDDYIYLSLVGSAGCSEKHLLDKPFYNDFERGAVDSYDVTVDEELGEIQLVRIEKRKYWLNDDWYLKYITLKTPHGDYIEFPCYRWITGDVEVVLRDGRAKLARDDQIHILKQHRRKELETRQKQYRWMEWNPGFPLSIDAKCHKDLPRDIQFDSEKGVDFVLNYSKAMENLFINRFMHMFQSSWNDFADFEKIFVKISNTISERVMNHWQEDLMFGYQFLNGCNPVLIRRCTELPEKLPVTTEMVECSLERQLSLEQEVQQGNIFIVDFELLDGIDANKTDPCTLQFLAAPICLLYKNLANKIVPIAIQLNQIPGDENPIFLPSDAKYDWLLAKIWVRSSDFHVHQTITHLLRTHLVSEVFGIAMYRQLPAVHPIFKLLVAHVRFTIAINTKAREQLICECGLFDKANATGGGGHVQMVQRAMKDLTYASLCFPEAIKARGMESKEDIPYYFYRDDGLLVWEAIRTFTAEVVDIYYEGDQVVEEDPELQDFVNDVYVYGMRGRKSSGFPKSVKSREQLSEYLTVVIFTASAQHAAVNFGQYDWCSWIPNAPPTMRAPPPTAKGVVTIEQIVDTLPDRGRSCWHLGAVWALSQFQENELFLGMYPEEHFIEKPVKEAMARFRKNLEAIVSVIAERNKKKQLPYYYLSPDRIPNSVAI

[4] = target: T3, human recombinant 5-LO (Homo sapiens, UniProt P09917); assay: cell-free 5-LO activity assay with purified human recombinant 5-LO
T3 sequence (P09917 1-674): T2 sequence (P09917 1-674)

[5] = system: NF-κB; assay: NF-κB transactivation, luciferase reporter in TNF-α-stimulated HEK-293/NF-κB-luc cells; assay type: cell-based; conditions: Homo sapiens
Protocol: The transactivation of a NF-κB-driven luciferase reporter gene was quantified in HEK-293/NF-κB-luc cells (Panomics, RC0014) as previously described. […] Six hours later cells were seeded in 96-well plates and incubated at 37°C and 5% CO2 overnight. On the next day, the medium was exchanged with serum-free DMEM and cells were treated with the respective test compounds dissolved in DMSO. To account for potential unspecific effects of the solvent, the final concentration of DMSO was always adjusted to 0.1%. One hour after treatment the cells were stimulated with 2 ng/mL human recombinant TNF-α for 6 h, and after a lysis step the luminescence of the firefly luciferase and the fluorescence of EGFP were quantified on a GeniosPro plate reader (Tecan; Grödig, Austria). The luciferase signal derived from the NF-κB reporter was normalized by the EGFP-derived fluorescence to account for differences in cell number.
To estimate of cell viability one part of the experiments were performed in cells that were not transfected with pEGFP-C1, but instead stained for 1 h in serum-free medium supplemented with 2 μM Cell Tracker Green CMFDA (C2925; Invitrogen) as described. Since this fluorescent probe is retained inside living cells, it can be used to monitor cell membrane integrity and thus has been broadly used to quantify viable cells. For quantification of NF-κB activity in this experimental setting the luciferase-derived signal from the NF-κB reporter was normalized to the Cell Tracker Green CMFDA-derived fluorescence to account for differences in cell number. Potential differences in cell viability were monitored by comparison of the Cell Tracker Green CMFDA fluorescence of the solvent vehicle treated control cells and cells treated with the indicated compounds.

[6] = system: COX-1; parameters: method as in PMID 19289158; conditions: at 45 µM; cited from earlier work
[7] = system: COX-2; parameters: method as in PMID 19289158; conditions: at 45 µM; cited from earlier work
[8] = target: T4, inhibitor of NF-κB kinase subunit beta (IKK2) (Homo sapiens, UniProt O14920); assay: IKK2 kinase inhibition; assay type: biochemical; conditions: at a concentration of up to 50 μM; data not shown
T4 sequence (O14920 1-756): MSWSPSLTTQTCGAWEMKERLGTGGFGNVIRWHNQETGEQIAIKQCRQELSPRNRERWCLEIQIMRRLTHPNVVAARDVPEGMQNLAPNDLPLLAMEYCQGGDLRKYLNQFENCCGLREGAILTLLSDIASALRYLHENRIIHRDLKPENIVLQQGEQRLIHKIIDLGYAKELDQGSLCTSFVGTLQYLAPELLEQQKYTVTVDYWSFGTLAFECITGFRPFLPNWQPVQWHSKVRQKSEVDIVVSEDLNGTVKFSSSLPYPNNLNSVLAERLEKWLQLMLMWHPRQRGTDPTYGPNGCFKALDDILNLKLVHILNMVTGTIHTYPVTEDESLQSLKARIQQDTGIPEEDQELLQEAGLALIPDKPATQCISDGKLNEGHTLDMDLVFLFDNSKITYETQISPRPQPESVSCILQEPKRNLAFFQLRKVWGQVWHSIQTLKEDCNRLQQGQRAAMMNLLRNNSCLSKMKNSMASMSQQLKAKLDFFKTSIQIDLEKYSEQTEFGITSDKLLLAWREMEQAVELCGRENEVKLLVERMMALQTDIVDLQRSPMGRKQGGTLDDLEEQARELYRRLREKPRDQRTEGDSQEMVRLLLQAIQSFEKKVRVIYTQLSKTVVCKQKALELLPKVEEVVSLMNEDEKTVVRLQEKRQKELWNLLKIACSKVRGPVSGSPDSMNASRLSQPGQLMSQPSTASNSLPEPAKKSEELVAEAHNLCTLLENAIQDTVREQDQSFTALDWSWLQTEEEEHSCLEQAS
From the text: Luciferase reporter gene expression reflects a downstream event of the NF-κB signaling cascade and cannot provide insights into the molecular targets contributing to the observed NF-κB inhibition. Thus, we tested the active compounds 4 and 5 for their potential to suppress the activity of the inhibitor of NF-κB kinase subunit beta (IKK2) as previously described, since it is a prominent upstream target of the NF-κB signaling cascade. […] Accordingly, this kinase is not a direct target of the NF-κB inhibiting depsides 4 and 5.

[9] = system: leukocyte recruitment to the peritoneum; assay: thioglycollate-induced peritonitis, leukocyte count in peritoneal lavage; assay type: in vivo, C57BL/6J mice; conditions: mouse
From the text: C57BL/6J male, 8-9 weeks old mice were housed in individually ventilated cages and fed with mouse chow and acidified water ad libitum in the mouse facility of the Institute of Vascular Biology and Thrombosis Research (Vienna, Austria). Animal care and all experimental procedures were approved by the Animal Experimental Committee of the Medical University of Vienna and by the Austrian Ministry of Science (license no. BMWF-66.009/0117-II/3b/2012).
The mice of the treatment groups – sterile thioglycollate and perlatolic acid or thioglycollate alone - (3 animals per group) were pre-treated i.p. with 1 mL of 6 µM perlatolic acid or 1 µL of DMSO dissolved in 1 mL of saline. Thirty minutes later the animals were injected i.p. with another 3 mL of saline with or without sterile thioglycollate (4%), and containing again 2 μL DMSO or perlatolic acid. Five hours after the second injection mice were sacrificed by carbon dioxide exposure and peritoneal cavities were washed three times with 2 mL of cold PBS containing 3 mM EDTA and collected as intra-peritoneal lavage. The leukocyte count in the peritoneum of untreated control mice was assessed by lavage. Mice without thioglycollate treatment were used as controls. The volume of the collected lavage was measured and the cell count determined by haemocytometer.

[10] = system: UACC-62 melanoma cells; conditions: cited from earlier work
[11] = system: B16-F10 melanoma cells; conditions: cited from earlier work
[12] = system: 12-LO; parameters: method as in PMID 15636173; conditions: cited from earlier work
[13] = HEK293, TNF-α-stimulated HEK-293/NF-κB-luc cells, n=3, read-out: NF-κB IC50

| IC50 [4] | Structure (SMILES) | IC50 [2] | IC50 [3] | other results |
| --- | --- | --- | --- | --- |
|  | COc1cc(C)c(C(=O)Oc2cc(C)c(C(=O)O)c(O)c2C)c(O)c1C=O [baeomycesic acid] |  |  | IC50 ([1]; read-out: 5-LO IC50): 8.3 µM |
| 7.6 µM | CCOC(=O)c1c(C)cc(O)c(C=O)c1O [compound 1, ethyl haematommate] | > 10 µM | > 10 µM |  |
| > 10 µM | COC(=O)c1c(C)cc(O)c(C)c1O [compound 2, methylbetaorcinolcarboxylate] | > 10 µM | > 10 µM |  |
| > 10 µM | CCCCCc1cc(OC)cc(O)c1C(=O)O [compound 6, 4-O-metylolivetolcarboxylic acid] | > 10 µM | > 10 µM |  |
| > 10 µM | CCCCCc1cc(OC)cc(O)c1C(=O)OCC [compound 7, ethyl-4-O-methylolivetolcarboxylate] | > 10 µM | > 10 µM |  |
| 7.2 µM | CCCCCc1cc(O)cc(OC)c1 [compound 9, olivetolmonomethylether] | > 10 µM | > 10 µM |  |
|  | CCCCCc1cc(O)cc(O)c1 [compound 10, olivetol] | > 10 µM | > 10 µM |  |
|  | CCCc1cc(O)cc(O)c1 [compound 11, divarinol] | > 10 µM | > 10 µM |  |
|  | CCCCCc1c2c(cc(O)c1C(=O)O)OC(=O)c1c(cc(OC)cc1C(=O)CCCC)O2 [lobaric acid] |  |  | IC50 ([1]; read-out: 5-LO IC50): ≥ 28.5 µM; IC50 [12]: ≥ 28.5 µM |
|  | C=C1C(=O)O[C@H]2[C@H]1CC/C(C)=C/CC[C@@]1(C)O[C@@H]21 [parthenolide, reference compound] |  |  | IC50 [5, 13]: 1.5 µM |

| Structure (SMILES) | IC50 [4] | IC50 [2] | IC50 [3] | other results |
| --- | --- | --- | --- | --- |
| COC(=O)c1c(C)cc(OC(=O)c2c(C)cc(O)c(C=O)c2O)c(C)c1O [compound 3, atranorin] | > 10 µM | > 10 µM | > 10 µM | IC50 [5, 13]: 20 µM; COX-1 inhibition [6]: ~45%; COX-2 inhibition [7]: ~45%; activity against 5-LO [1]: inactive |
| CCCCCc1cc(OC)cc(O)c1C(=O)Oc1cc(O)c(C(=O)O)c(CCC)c1 [compound 4, imbricaric acid] | 3.5 µM | 1.9 µM | 5.3 µM | IC50 ([5]; HEK293, read-out: NF-κB IC50): 2 µM; IKK2 inhibition [8]: did not inhibit IKK2 |
| CCCCCc1cc(OC(=O)c2c(O)cc(OC)cc2CCCCC)cc(O)c1C(=O)O [compound 5, perlatolic acid] | 0.4 µM | 0.4 µM | 1.8 µM | IC50 [5, 13]: 7 µM; IKK2 inhibition [8]: did not inhibit IKK2; reduction of thioglycollate-induced increase in total leukocyte count in peritoneal lavage fluid ([9]; i.p. co-administration, 5 h after TG injection, n=3, p<0.05): 30-40%; toxic effects observed in the animals ([9]; i.p., acute inflammation model): no hints of toxic effects; cytotoxicity on UACC-62 melanoma cells [10]: moderate selective cytotoxicity; cytotoxicity on B16-F10 melanoma cells [11]: moderate selective cytotoxicity |
| CCCCCc1cc(O)cc(O)c1C(=O)OCC [compound 8, ethyl olivetolate] | > 10 µM | > 10 µM | 6.8 µM |  |
